System: Candida albicans ATCC 10231
Test: protective activity against opportunistic infections in immunosuppressed (5-FU pretreated) mice
Type: in vivo
Conditions: for Survivors at Day 15 / Survivors at Day 8: daily for eight days with 5-FU 25 mg/kg/day i.p., female ddY mice; for Survivors at Day 15: survivors/total 15 days after infection; for Survivors at Day 8: survivors/total eight days after infection
Description: The mice were then infected with Candida albicans ATCC 10231 (1×10^5cells or more) at 24 hours after the last treatment. One control group was administered 5-FU and saline solution and a second control group received neither 5-FU nor a thymic polypeptide prior to infection with Candida albicans.

With “Thymosin β4: peptide containing 44 amino acid residues, isolated from calf thymus; contained in APF” the “protective effects against infection” value (compared with the polypeptides of Thymosin Fraction 5, thymosin α1 and thymosin β8, 5-FU immunosuppressed mice) was “of comparable similar magnitude”, the “Survivors at Day 15” value (dose 0.4 μg/kg/day) was 6/10 and the “Survivors at Day 8” value (dose 0.4 μg/kg/day) was 7/10. For the same substance, the “Survivors at Day 15” value (dose 4 μg/kg/day) was 5/10, the “Survivors at Day 8” value (dose 4 μg/kg/day) was 5/10 and the “Survivors at Day 15” value (dose 40 μg/kg/day) was 1/10. The “Survivors at Day 8” value (dose 40 μg/kg/day) was 1/10.

Source: patent US4388234A, “Peptide isolation” (Hoffmann-La Roche Inc., priority 1981, dated 1983)
